In publication PMC5877439 (British Journal of Cancer, 2018):

Columns and labels:
[1] = Plasma MK-0752 PK analysis; type: in vivo, human
[2] = Tumour MK-0752 concentration in biopsies; type: in vivo, human; conditions: between the 1500 and 2100 mg doses; data limited
[3] = Safety, tolerability, DLT and MTD; type: in vivo, human
Notch signalling = assay: Notch signature score in plucked hair follicles; type: in vivo, human; conditions: number of samples limited
[4] = ref Krop et al, 2012, cited from earlier work

Compound	MK-0752 plasma exposure across the dose groups ([1]; 1200-2400 mg once weekly)	Plasma MK-0752 exposure (AUC0-t) and Cmax, effect of gemcitabine ([1]; day 1 (MK-0752+gemcitabine) vs day -7 (MK-0752 alone), 40 patients)	Tumour MK-0752 concentration across doses [2]	MTD / RP2D of MK-0752 in combination with gemcitabine ([3]; p.o. once weekly, with gemcitabine 1000 mg m^-2) [mg]	Relationship between MK-0752 dose and fold-change in Notch score (Notch signalling)	Drug exposure with dose, single agent ([4]; phase I studies of MK-0752 alone)	Recommended dose for phase II evaluation (RP2D), single agent ([4]; single-agent studies) [mg]	Maximum tolerated dose (MTD), single agent ([4]; weekly schedule, MK-0752 alone) [mg]	MTD / RP2D of gemcitabine in combination with MK-0752 ([3]; i.v. days 1, 8 and 15 of 28 day cycle, with MK-0752 1800 mg) [mg m^-2]
O=C(O)CC[C@H]1CC[C@@](c2cc(F)ccc2F)(S(=O)(=O)c2ccc(Cl)cc2)CC1 [MK-0752]	no increment in exposure beyond the RP2D single-agent dose (1800 mg weekly)	did not appear to be affected by the addition of gemcitabine	no increment	1800	no relationship	no significant increase in drug exposure between 1800 mg and 3200 mg	1800	3200	–
Nc1ccn([C@@H]2O[C@H](CO)[C@@H](O)C2(F)F)c(=O)n1 [gemcitabine, 2′,2′,-difluoro-2′,-deoxycytidine, reference compound]	–	–	–	–	–	–	–	–	1000
